# Literature values, collected in patent US20260258086A1 (priority 2021, published 2026).
# Settings: in vivo; cited from earlier work
smiles,measurement,value
CC[C@H](C)[C@@H]1NC(=O)CNC(=O)[C@@H]2Cc3c([nH]c4cc(O)ccc34)[S@+]([O-])CC(NC(=O)CNC1=O)C(=O)N[C@@H](CC(N)=O)C(=O)N1C[C@H](O)C[C@H]1C(=O)N[C@@H]([C@@H](C)[C@@H](O)CO)C(=O)N2 [α-amanitin],toxicity,0.05 to 0.1 mg/kg
